Patent US7595327B2, “Beta-sulfonamide hydroxamic acid inhibitors of tace/matrix metalloproteinase” (priority 2005, dated 2009)

What was measured:
[1] = molecular target: T1, recombinant human catalytic domain of MMP-1 (Homo sapiens, UniProt P03956); test: In-vitro fluorescence assay of MMP-1 activity; format: biochemical
T1 construct: The source of enzyme in the assay was the recombinant human catalytic domain of MMP-1
T1 sequence (P03956 100-269 limits assumed): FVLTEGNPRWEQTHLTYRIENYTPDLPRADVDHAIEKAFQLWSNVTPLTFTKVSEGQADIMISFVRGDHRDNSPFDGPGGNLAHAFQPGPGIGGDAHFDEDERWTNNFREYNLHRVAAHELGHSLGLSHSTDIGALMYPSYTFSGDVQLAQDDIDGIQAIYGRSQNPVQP

[2] = molecular target: T2, recombinant human MMP-2 (Homo sapiens, UniProt P08253); test: In-vitro fluorescence assay of MMP-2 activity; format: biochemical
T2 sequence (P08253 110-660): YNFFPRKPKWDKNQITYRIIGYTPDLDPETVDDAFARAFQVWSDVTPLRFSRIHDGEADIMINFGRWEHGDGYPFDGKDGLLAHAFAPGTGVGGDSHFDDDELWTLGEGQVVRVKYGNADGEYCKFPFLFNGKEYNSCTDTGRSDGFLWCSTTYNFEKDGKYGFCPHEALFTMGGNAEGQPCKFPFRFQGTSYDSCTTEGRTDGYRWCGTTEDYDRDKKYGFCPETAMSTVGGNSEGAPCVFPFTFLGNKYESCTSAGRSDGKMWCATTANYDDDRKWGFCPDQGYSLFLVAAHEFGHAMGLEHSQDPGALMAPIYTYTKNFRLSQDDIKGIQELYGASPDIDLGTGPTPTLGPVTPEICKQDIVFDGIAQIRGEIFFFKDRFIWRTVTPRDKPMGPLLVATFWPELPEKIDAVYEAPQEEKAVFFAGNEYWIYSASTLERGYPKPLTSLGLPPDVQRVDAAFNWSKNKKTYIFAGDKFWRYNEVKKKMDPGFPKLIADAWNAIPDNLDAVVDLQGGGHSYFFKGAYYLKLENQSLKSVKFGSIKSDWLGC

[3] = molecular target: T3, recombinant human MMP-7 (Homo sapiens, UniProt P09237); test: In-vitro fluorescence assay of MMP-7 activity; format: biochemical
T3 construct: Active, recombinant human MMP-7 was purchased from Calbiochem (catalog #444270; expressed in E. coli, 19 kDa); purchased Calbiochem 444270; host or cells: E. coli
T3 sequence (P09237 95-267): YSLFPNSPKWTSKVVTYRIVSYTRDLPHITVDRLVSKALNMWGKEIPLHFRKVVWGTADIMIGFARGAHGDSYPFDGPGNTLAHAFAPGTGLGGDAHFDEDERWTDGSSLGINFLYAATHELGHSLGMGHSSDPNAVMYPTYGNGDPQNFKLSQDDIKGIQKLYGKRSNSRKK
Method: The method was similar to that for the determination of MMP-1 activity, described above, with the following differences. Active, recombinant human MMP-7 was purchased from Calbiochem (catalog #444270; expressed in E. coli, 19 kDa). […] The concentration of the substrate stock was spectrophotometrically determined using the extinction coefficient at 410 nm of 7500 M^−1 cm^−1. The assay buffer (pH 7.4) consisted of 50 mM Hepes, 100 mM NaCl, 5 mM CaCI2, and 0.005% Brij-35. […] The plates were then incubated at room temperature for 30 minutes. The enzymatic reactions were initiated by adding substrate to a final concentration of 15 μM and were mixed by pipelting up and down. The final DMSO concentration in the assay was 10% and the final, total assay volume was 200 μl. […]

[4] = molecular target: T4, recombinant human catalytic domain of MMP-14 (Homo sapiens, UniProt P50281); test: In-vitro fluorescence assay of MMP-14 activity; format: biochemical
T4 construct: 20 kDa; purchased Chemicon International, Inc. CC1041
Method: The results were analyzed as described for MMP-13 activity, above.

[5] = tested on: TNF-α secretion in Raw 264.7 cells; test: Cell-based assay for inhibition of TNF-α secretion in Raw cells; settings: Mus musculus, RAW264.7, LPS 100 ng/ml, 4 hr
Summary of the method: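 Confluent Raw 264.7 cells were seeded overnight, refed, and pre-incubated 1 hr with compound (0.2% final DMSO), then stimulated with LPS at 100 ng/ml final for 4 hr at 37° C. Supernatant TNF-α measured by ELISA; % inhibition and IC50 by curve fitting.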

[6] = tested on: LPS-induced TNF-α secretion in human whole blood; test: Human whole blood assay for LPS-induced TNF-α secretion; format: cell-based; settings: Homo sapiens, LPS 100 ng/ml, read-out: TNF Secretion HWB IC50
Summary of the method: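 Fresh blood from healthy volunteers pre-incubated 1 h at 37° C with compound (final DMSO <0.2%), then stimulated with 100 ng/ml LPS for 4 h or overnight at 37° C with rotation. Supernatant TNF-α measured by ELISA; percent inhibition and IC50 derived by curve fitting.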

[7] = molecular target: recombinant human MMP-8 (Homo sapiens, UniProt P22894); test: In-vitro fluorescence assay of MMP-8 activity
recombinant human MMP-8, sequence (P22894 101-467): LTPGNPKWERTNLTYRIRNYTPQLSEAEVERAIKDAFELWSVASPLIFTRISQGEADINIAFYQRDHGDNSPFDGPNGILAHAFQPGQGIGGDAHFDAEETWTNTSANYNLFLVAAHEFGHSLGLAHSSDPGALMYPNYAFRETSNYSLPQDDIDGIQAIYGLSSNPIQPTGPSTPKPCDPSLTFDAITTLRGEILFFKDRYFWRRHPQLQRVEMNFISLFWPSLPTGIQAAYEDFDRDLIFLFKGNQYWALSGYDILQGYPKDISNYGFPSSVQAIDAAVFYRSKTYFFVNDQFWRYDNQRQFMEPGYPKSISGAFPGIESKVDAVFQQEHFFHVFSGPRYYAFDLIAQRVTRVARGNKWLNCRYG

| Compound | IC50 [1] [nM] | IC50 [2] [nM] | IC50 [3] [nM] | IC50 [4] [nM] | IC50 [5] [nM] | IC50 [6] [nM] | IC50 [7] [nM] |
| --- | --- | --- | --- | --- | --- | --- | --- |
| Cc1cc(COc2ccc(S(=O)(=O)N[C@@H]3CN(C=O)C[C@@H]3C(=O)NO)cc2)c2ccccc2n1 (relative stereo) [Example 20, cis-1-Formyl-N-hydroxy-4-[({4-[(2-methylquinolin-4-yl)methoxy]phenyl}sulfonyl)amino]pyrrolidine-3-carboxamide] | > 16700 | > 10000 | 812 | > 16700 | 20 | 120 | > 16700 |
| Cc1cc(COc2ccc(S(=O)(=O)N[C@@H]3CCC[C@@H]3C(=O)NO)cc2)c2ccccc2n1 [Example 13, (1S,2R)-N-Hydroxy-2-[({4-[(2-methylquinolin-4-yl)methoxy]phenyl}sulfonyl)amino]cyclopentanecarboxamide] | > 16700 | > 10000 | 444 | > 16700 | 9 | 250 | > 16700 |
| Cc1cc(COc2ccc(S(=O)(=O)N[C@@H]3CN(C(=O)NC(C)(C)C)CC[C@@H]3C(=O)NO)cc2)c2ccccc2n1 [Example 35, 3-[4-(2-Methyl-quinolin4-ylmethoxy)-benzenesulfonylamino]-piperidine-1,4-dicarboxylic acid 1-tert-butylamide 4-hydroxyamide] | > 16700 | > 16700 | 4620 | > 16700 | 58 | 800 | > 16700 |

Now from value to compound:

| IC50 [1] [nM] | IC50 [2] [nM] | IC50 [3] [nM] | IC50 [4] [nM] | IC50 [5] [nM] | IC50 [6] [nM] | IC50 [7] [nM] | Compound |
| --- | --- | --- | --- | --- | --- | --- | --- |
| > 16700 | > 10000 | 668 | > 16700 | 24 | 340 | > 16700 | Cc1cc(COc2ccc(S(=O)(=O)N[C@@H]3CN(S(C)(=O)=O)C[C@@H]3C(=O)NO)cc2)c2ccccc2n1 (relative stereo) [Example 17, cis-N-Hydroxy-4-[({4-[(2-methylquinolin-4-yl)methoxy]phenyl}sulfonyl)amino]-1-(methylsulfonyl) pyrrolidine-3-carboxamide] |
| > 16700 | > 16700 | 1170 | > 16700 | 51 | 280 | > 16700 | CCNC(=O)N1C[C@H](C(=O)NO)[C@H](NS(=O)(=O)c2ccc(OCc3cc(C)nc4ccccc34)cc2)C1 (relative stereo) [Example 23, cis-1-Ethyl-N-hydroxy-4-[({4-[(2-methylquinolin-4-yl)methoxy]phenyl}sulfonyl)amino]pyrrolidine-1,3-dicarboxamide] |
| > 16700 | > 16700 | 827 | > 16700 | 12 | 200 | > 16700 | Cc1cc(COc2ccc(S(=O)(=O)N[C@H]3COC[C@H]3C(=O)NO)cc2)c2ccccc2n1 (stereo in doubt) [Example 26, (3S,4R)-4-[4-(2-Methyl-quinolin-4-ylmethoxy)-benzenesulfonylamino]-tetrahydro-furan-3-carboxylic acid hydroxyamide] |
